For one data set, the target named is telomerase. The following applies: read-out: telomerase inhibitory activity IC50; cited from earlier work.
For a further data set, the system named is LAN5. As to conditions: human neuroblastoma cell line; read-out: cytotoxicity IC50 LAN5; cited from earlier work.
In the next data set the test system is LAN1. As to conditions: human neuroblastoma cell line; read-out: cytotoxicity IC50 LAN1; cited from earlier work.
A further data set deals with WAC2. The following applies: human neuroblastoma cell line; read-out: cytotoxicity IC50 WAC2; cited from earlier work.
A further data set deals with SK-N-AS. As to conditions: human neuroblastoma cell line; read-out: cytotoxicity IC50 SK-N-AS; cited from earlier work.
The subject of another data set is MiaPaCa. The following applies: human pancreatic carcinoma; read-out: cytotoxicity IC50 MiaPaCa; cited from earlier work.
Data set [1] has as its system Human Telomeric G-Quadruplex DNA d(T2AG3)4. In words: UV melting, thermal stabilization of G-quadruplex DNA (Test A). It counts as binding. As to conditions: pH 7.5, 50 mM K+; Tm of the drug-DNA complex minus that of the DNA alone; absorbance at 295 nm. An excerpt:
(§1) Test A. Selective Stabilization of G-Quadruplex DNA Analyses can be performed to determine the ability of the compounds to selectively bind and thermally stabilize quadruplex relative to duplex DNA. Toward this end, the UV absorbances of the DNA molecules are monitored as a function of temperature in the absence and presence of compound. The melting of duplex DNA is generally associated with a hyperchromic shift at 260 nm, while the melting of quadruplex DNA is associated with a hypochromic shift at 295 nm. Thus, the temperature-dependent absorbances of duplex DNA are monitored at 260 nm, with the corresponding quadruplex absorbances being monitored at 295 nm. Salmon testes DNA can be used as a representative model of duplex DNA and d([…])4 can be used as a representative model of quadruplex DNA. All UV melting studies are conducted at physiological pH (7.4) in the presence of potassium ions at physiologically relevant concentrations. Representative compounds of formula I (compounds 6, 32, and 33) were evaluated for their abilities to selectively bind and stabilize G-quadruplex relative to duplex DNA. […] By contrast, none of the compounds exert any impact on the thermal stability of the DNA duplex (ΔTm=0° C. for all three compounds).

Data set [2] deals with human lymphoblastoma cell line RPMI 8402. Briefly: MTT cytotoxicity assay (Test B). The data set is classed as cell-based. As to conditions: RPMI 8402, 96 h, cells cultured 4 days. An excerpt:
(§2) Test B. Evaluation of G-Quadruplex Stabilizers using the MTT Assay.
(§3) Cell lines are selected based upon one or more factors including data on their relative telomerase activity, varied organ sites, available comparative data, and their ability to form solid tumors in athymic nude mice. The advantage of an MTT assay is that the cytotoxic/cytostatic activities can be readily determined.
On the technique in general: Tetrazolium assays rely on reduction of a dye to a coloured formazan, in cell work by metabolically active cells.

Data set [3] concerns KB3-1 human epidermoid carcinoma tumor cells. In words: MTT cytotoxicity assay (Test B). The data set is classed as cell-based. The following applies: KB 3-1, 96 h, cells cultured 4 days.
From the text: as §2, §3

The subject of a further data set is Salmon Testes Duplex DNA. In words: UV melting, thermal stabilization of duplex DNA (Test A). As to conditions: pH 7.5, 50 mM K+; Tm of the drug-DNA complex minus that of the DNA alone; absorbance at 260 nm. The data set is classed as binding.
From the text: as §1

For data set [4], the system named is MDA-MB-435 human tumor xenografts (human melanoma cells). Briefly: Human tumor xenograft athymic nude mouse model (Test C). As to conditions: ip injection; athymic nude mice; tumor volume. It counts as in vivo, female NCR/NU NU mice. How it is done: Test C. Evaluation of G-Quadruplex Stabilizers in the Human Tumor Xenograft Athymic Nude Mouse Model.
Compound 33 inhibited the growth of MDA-MD-435 human tumor xenografts (developed from human melanoma cells) in vivo by more than 50% when administered by ip injection. Bioassays were performed using female NCR/NU NU mice of approximately 9 weeks of age as obtained from Taconic Farms, Inc. (Germantown, N.Y., USA). Mice were housed 4 per cage in laminar flow HEPA filtered microisolator caging (Allentown Caging Equipment Co., Allentown, N.J., USA). Mice were fed Purina autoclavable breeder chow #5021 and given drinking water, purified by reverse-osmosis, ad libitum. Five days after arrival within the animal facility, the mice were inoculated on the right flank with 1.5×10^6 MDA-MB-435 tumor cells in 0.1 mL of RPMI 1640 Media by sc injection (25 gauge needle×⅝″). The MDA-MB-435 cells were grown in 75 cm^2 flasks using RPMI 1640 Media and 10% fetal bovine serum. Tumors were of sufficient size at 19-20 days after inoculation. Tumor-bearing mice were evenly matched in each experimental group based on tumor volume. Tumor volume was calculated by measuring the tumor with a microcaliper. The length (l) is the maximum two dimensional distance of the tumor and the width (w) is the maximum distance perpendicular to this length measured in mm. Tumor volume was calculated using the formula (l*w^2)/2.

Data set [5] has as its system HBC-4, BSY-1, HBC-5, MCF-7, and MDA-MB-231. The following applies: range over HBC-4, BSY-1, HBC-5, MCF-7, MDA-MB-231; read-out: GI50 against human breast cancer cell lines; cited from earlier work.

The term IC50 denotes the concentration at which inhibition is half-maximal. In general, melting point refers to the temperature of the solid-liquid transition. Broadly, the GI50 is the concentration at which growth is held to half of that of the control.

SMILES strings stand for the structures.

As for `Cc1oc2nc1-c1nc(co1)-c1nc(co1)-c1nc(co1)-c1nc(co1)-c1nc(co1)C1=NC(CS1)c1nc-2c(C)o1` (stereo not shown) [Telomestatin], the IC50 is 5 nM on telomerase; 2500 nM in the data set with LAN5; 4 µM in the data set with LAN1; 3.2 µM in the data set with WAC2; 800 nM in the data set with SK-N-AS; 500 nM with MiaPaCa.
Consider `CN(C)CCc1cc2cc(c1)CNC(=O)c1coc(n1)-c1coc(n1)-c1cccc(n1)-c1nc(co1)-c1nc(co1)C(=O)NC2` [Compound 33], for which the melting point was 295 °C (dec.). In [1], the “Human Telomeric G-Quadruplex DNA ΔTm” value came out at 31.5 °C. In data set [2], this compound yielded an IC50 of 180 nM. For the same compound, in data set [3], inhibition was half-maximal at 40 nM (IC50). Further, the “Salmon Testes Duplex DNA ΔTm” value with Salmon Testes Duplex DNA turned out to be 0 °C. The “inhibition of growth of human tumor xenografts in vivo” value in [4] is reported as “more than 50%”.
Regarding `CC[C@H](C)[C@@H]1NC(=O)c2nc(oc2-c2ccccc2)-c2csc(n2)-c2coc(n2)-c2coc(n2)-c2coc(n2)CNC(=O)[C@@H](C(C)C)NC1=O` [YM-216391], the GI50 in data set [5] was 15 to 33 nM.

The values above are taken from patent publication US8796300B2, “Therapeutic compounds” (Rutgers, the State University of New Jersey, priority 2009, dated 2014).
